Legend:
Bfl-1 = molecular target: T1, Bfl-1 (Homo sapiens, UniProt Q16548); assay: Competition fluorescence polarization (anisotropy) binding assay with fluoresceinated Bim; conditions: for selective binding to Bfl-1 over other Bcl-2 family proteins: Ki from competition assays with fluoresceinated Bim; for affinity for Bfl-1 relative to PUMA / specificity for Bfl-1 relative to PUMA: inhibition constants, 23-residue peptides (FIG. 2I)
T1 sequence (Q16548 1-175): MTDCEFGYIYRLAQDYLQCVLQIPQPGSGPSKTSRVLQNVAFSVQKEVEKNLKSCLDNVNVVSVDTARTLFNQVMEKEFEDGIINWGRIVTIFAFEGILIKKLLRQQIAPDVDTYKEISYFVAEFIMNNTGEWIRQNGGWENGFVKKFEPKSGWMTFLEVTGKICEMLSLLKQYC
Experimental: Fluorescence polarization assays were performed in order to measure the binding abilities of the peptide constructs. Competition fluorescence polarization experiments were performed by titrating 10-0 μM of unlabeled peptide into 50 nM receptor with […] fluorecinated Bim (fluorescein-[…]) in FP buffer (25 mM Tris pH 7.8, 50 mM NaCl, 1 mM EDTA, 0.001% v/v Triton-X, 5% DMSO). C-myc-tagged receptors were used for all Bcl-2 homologs. Plates were mixed at room temperature for 3 h. Experiments were done in triplicate.
Ki values were obtained from the competition assays with fluoresceinated Bim peptide.

[1] = system: BCR-ABL-expressing B-ALL cell lines engineered to depend on Bcl-2, Bcl-xL, Mcl-1 or Bfl-1; assay: Whole-cell BH3 profiling (JC-1 mitochondrial depolarization, MOMP); type: cell-based; set-up: cross reactivity in non-Bfl-1 dependent lines: dose or concentration left out as unconfirmed; conditions: JC-1 readout; for mitochondrial depolarization in cell lines dependent on Mcl-1, Bcl-2, Bcl-xL or Bfl-1: FS peptides at 100 nM
Experimental: A whole-cell BH3 profiling assay was used to test the specificity of the peptide constructs in several cell lines with known dependencies on anti-apoptotic proteins, including Bcl-2, Mcl-1, Bcl-xL, or Bfl-1. The creation and characterization of the BCR-ABL-expressing B-lineage acute lymphoblastic leukemia suspension cell lines with engineered dependencies on human versions of anti-apoptotic genes is detailed in Koss et al., Oncotarget, 7:11500-11511, 2016. Cells were grown in RPMI (Life Technologies, Carlsbad, Calif.) with 10% fetal bovine serum, 2 mM L-glutamine, 10 mL/L 100× Pen/Strep (Life Technologies #15140122), 25 mM HEPES and 10 mL/L 100×NEAA (Life Technologies, 11140050). The adherent cell lines PC-3 (RRID: CVCL_0035) and SF295 (RRID: CVCL_1690) are from the NCI60 panel (Lorenzi et al., 2009) and were grown in RPMI (Life Technologies) with 10% fetal bovine serum, 2 mM L-glutamine and 10 mL/L 100× Pen/Strep (Life Technologies #15140122). Cell line identities were confirmed by STR profiling. The Lookout Mycoplasma PCR detection kit (Sigma) was used to detect mycoplasma infection. Mycoplasma was only detected in the PC-3 cell line, and internal controls were used to account for this phenotype.
Peptides were titrated by serial dilution in MEB buffer (150 mM Mannitol, 10 mM HEPES-KOH pH 7.5, 50 mM KCl, 0.02 mM EGTA, 0.02 mM EDTA, 0.1% BSA and 5 mM Succinate) containing 20 […], […] and 10 mM 2-mercaptoethanol in 384-well plates. Controls for no depolarization (1% DMSO) and complete depolarization with the mitochondrial oxidative phosphorylation uncoupler FCCP ([…]) were included for data normalization. Cells were suspended at 1.67×10^6 cells/mL in MEB. […] was added to each well containing […] of treatment solution. Fluorescence emission was measured every 5 min for 3 hours at […] with 525 nm excitation on a Tecan Safire2. To produce percent depolarization, the area under the resultant curve was calculated and normalized to the assay controls. Peptide titration curves were fit to sigmoidal dose-response curves using Graphpad PRISM seven to obtain EC50 values.
As depicted in FIG. 9A, in this assay, permeabilized cells were contacted with increasing doses of the BH3 peptides, and mitochondrial outer membrane permeabilization (MOMP) was monitored using a voltage-sensitive dye (JC-1). The apoptotic sensitivity of BCR-ABL-expressing B-lineage acute lymphoblastic leukemia (B-ALL) cell lines engineered to depend on Bcl-2, Bcl-xL, Mcl-1 or Bfl-1 overexpression for survival.

Bcl-xL = assay: Ki (nM) | Bcl-xL
[2] = system: BCR-ABL-expressing B-ALL cell lines engineered to depend on Bcl-2, Bcl-xL, Mcl-1 or Bfl-1; assay: iBH3 profiling, cytochrome c release; type: cell-based; set-up: cross reactivity in non-Bfl-1 dependent lines: dose or concentration left out as unconfirmed
Experimental: As an additional test for on-pathway activity, cytochrome c release was measured in the same engineered cell lines in response to peptide treatment, using iBH3 profiling (see Ryan et al., Biol. Chem., 397:671-678, 2016). Cells were suspended in MEB buffer (150 mM mannitol, 50 mM KCl, 10 mM HEPES, 5 mM succinic acid, […], 0.1% BSA, final pH 7.4) at 0.5*10^6 cells/mL (adherent lines) or 2*10^6 cells/mL (suspension lines). Cell suspension was added to a 384 non-binding well plate ([…]) containing peptides at 2× final concentration in MEB with […]. Plates were incubated at 25° C. for 1 hour. To terminate exposure, […] in PBS was added to each well, plates were incubated for 10 minutes before addition of […] (1.7 M Tris, 1.25 M glycine, pH 9.1) for 5 min. […] The median fluorescence of the cytochrome c channel of Hoechst positive singlets was recorded by an IntelliCyt iQue Screener Plus. Cytochrome c release was determined by normalizing the median fluorescence intensity (MFI) data to positive control wells (Alamethicin) and negative control wells (DMSO) as follows: Cytochrome release=1−(MFIsample−MFIAlamethicin)/(MFIDMSO−MFIAlamethicin)

Substance	selective binding to Bfl-1 over other Bcl-2 family proteins (Bfl-1)	affinity for Bfl-1 relative to PUMA (Bfl-1)	specificity for Bfl-1 relative to PUMA (Bfl-1)	specificity for Bfl-1 relative to Bcl-xL, Bcl-2, Bcl-w and Mcl-1 (Bfl-1; ratio of Ki values)	mitochondrial depolarization in cell lines dependent on Mcl-1, Bcl-2, Bcl-xL or Bfl-1 [1]	Ki (Bcl-xL)	cross reactivity in non-Bfl-1 dependent lines [1]	potency of mitochondrial depolarization, comparison [1]	potency in cytochrome c release, comparison [2]	cross reactivity in non-Bfl-1 dependent lines ([2]; cytochrome c release)
Ac-QWVREIAAGLRLAADNVNAQLER-NH2 [FS1]	bound selectivity to Bfl-1 over other Bcl-2 family proteins	reduced affinity for Bfl-1 relative to PUMA	significantly increased specificity	at least 150 fold	promoted depolarization only in Bfl-1 dependent cells	2720 ± 713 nM	–	–	–	–
QWIREIAAGLRRFADILNAQVER [FS3]	bound selectivity to Bfl-1 over other Bcl-2 family proteins	reduced affinity for Bfl-1 relative to PUMA	significantly increased specificity	–	promoted depolarization only in Bfl-1 dependent cells	–	significant cross reactivity	more potently than FS1 or FS2	more potently than FS1 or FS2	significant cross reactivity
QWVREIAAGLRRAADDVNAQVER [FS2]	bound selectivity to Bfl-1 over other Bcl-2 family proteins	reduced affinity for Bfl-1 relative to PUMA	significantly increased specificity	–	promoted depolarization only in Bfl-1 dependent cells	–	–	–	–	–
